Experimental data as given in US20100016221A1, “METHOD OF DEGRADING PROTEIN BY CHAPERONE-MEDIATED AUTOPHAGY” (RIKEN, priority 2008, published 2010).
Ends that are not written are not given here.

Legend:
[1] = tested on: PC12 cells; experiment: Inclusion formation of tNhtt-60Q-Venus with or without HSC70bm in PC12 cells; type: cell-based, rat; conditions: 10 mM 3MA, 10 μM pepstatin A
Protocol: The tNhtt-16Q-EGFP and tNhtt-150Q-EGFP plasmids for transient transfection were prepared by the introduction of the coding sequence into pcDNA3.1 vector (Invitrogen). […] HSC70bm were amplified with primers containing SalI in the forward and XmaI cutting site in the reverse primer from the 60QHsc construct. […] To produce molecules without mRFP tag, all constructs were amplified using primers containing BamHI in the forward and XbaI in the reverse primer, respectively, and introduced to pcDNA3.1 vector.
Rat pheochromocytoma (PC12) cells were grown in the same conditions as Neuro2a cells, except for the serum composition of 5% of fetal bovine and 10% of horse serum (Sigma). […]
In each well, at least 10000 cells were counted and quantified for the presence of the inclusions. […] The screening itself consisted of two scans using Hoechst, FITC (for GFP) and TRITC (for RFP) fluorescence. […] The percentage of the cells with aggregates was then calculated. When the constructs without mRFP were used for transfection, the procedure was same, except the RFP intensity was not measured. […]

[2] = tested on: polyQ inclusions in 150Q-nls Neuro2a cells (tNhtt-EGFP-150Q-nls); experiment: ArrayScan quantification of polyQ inclusion formation in inducible 150Q-nls Neuro2a cells; type: cell-based, mouse; conditions: 150Qnls Neuro2a cells, mRFP-tagged constructs, after 48 hours of differentiation and induction
Protocol: (§1) Mouse neuroblastoma (Neuro2a) cells were maintained in Dulbecco's modified Eagle's medium (Sigma) supplemented with 10% heat-inactivated fetal bovine serum (Sigma), 100 U/ml penicillin and 100 μg/ml streptomycin (Invitrogen) at 37° C. in an atmosphere containing 5% CO2 and 95% air. Establishment of stable Neuro2a cell lines with the ecdysone-inducible mammalian expression system (Invitrogen), that express tNhtt-EGFP-16Q (16Q Neuro2a cells), tNhtt-EGFP-150Q (150Q Neuro2a cells) and tNhtt-EGFP-150Q-nls (150Q-nls Neuro2a cells) has been described earlier (T. Nagai et al., supra, H. Doi et al., supra, E. A. Zemskov et al., J Neurochem. 87, 2 (2003)). Neuro2a cells were differentiated with 5mM dbcAMP (N^6, 2′-O-dibutyryladenosine-3′,5′-cyclic monophosphate sodium salt) (Nacalai Tesque) and induced to express tNhtt-polyQ with 2 μM ponasterone A (ponA; Invitrogen) for indicated times. Neuro2a/FRT/TR cell line was generated as described in the protocol for Flp-in/T-Rex system (Invitrogen). Neuro2a tNhtt-62Q-kikGR cell line was generated by transfecting Neuro2a/FRT/TR cells with the pFRT-HD62-KikGR and pOG44 (Invitrogen) constructs using Lipofectamine 2000 reagent and selected with 200 μg/ml hygromycin. The expression of the pFRT-tNhtt-62Q-KikGR was induced by 18 doxycycline treatment of the cells. For the photo-induced kikGR cleavage, cells were exposed to ˜400 nm wavelength for 5 minutes. […]
(§2) For the quantification of the inclusions, cells were grown in 24-well plates for indicated periods, fixed in 4% paraformaldehyde, washed and incubated with Hoechst 33258 at 1/1000 dilution in PBS. Cells were analyzed by ArrayScan® V^TI High Content Screening (HSC) Reader (Cellomics) using Target Activation BioApplication (TABA). TABA analyzes images acquired by a HSC Reader and provides measurements of the intracellular fluorescence intensity and localization on a cell-by-cell basis.
In each well, at least 10000 cells were counted and quantified for the presence of the inclusions. Nuclei stained with Hoechst 33285 provided the autofocus target and their count gave the exact number of the quantified cells. The screening itself consisted of two scans using Hoechst, FITC (for GFP) and TRITC (for RFP) fluorescence. Firstly, number of inclusions in transfected cells was calculated when fluorescent spots at size of at least 5 pixels (magnification 20× for cytoplasmic and 40× for nuclear aggregates) with average GFP intensity more than 1500 in the RFP background were counted. […] The percentage of the cells with aggregates was then calculated. When the constructs without mRFP were used for transfection, the procedure was same, except the RFP intensity was not measured. […] Data was generated from the quantification of more than 250,000 cells in each experimental set-up.

[3] = biological target: T1, tNhtt-150Q (Homo sapiens, UniProt P42858); experiment: Western blot of polyQ aggregation (gel top) in 150Q Neuro2a cells; type: cell-based; conditions: expression of mRFP-tagged constructs
T1 construct: N-terminal fragment of human huntington exon 1 (tNhtt); expressed in transfected cells
T1 sequence (P42858 with tags, fused parts or gaps): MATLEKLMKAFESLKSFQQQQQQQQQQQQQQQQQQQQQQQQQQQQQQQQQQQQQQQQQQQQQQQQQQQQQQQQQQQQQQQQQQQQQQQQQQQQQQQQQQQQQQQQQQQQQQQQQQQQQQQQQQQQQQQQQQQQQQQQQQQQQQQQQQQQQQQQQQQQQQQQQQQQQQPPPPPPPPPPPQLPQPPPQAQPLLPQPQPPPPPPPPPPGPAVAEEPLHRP
Protocol: as §1, with “(Invitrogen).” for “(Invitrogen). Neuro2a tNhtt-62Q-kikGR cell line was generated by transfecting Neuro2a/FRT/TR cells with the pFRT-HD62-KikGR and pOG44 (Invitrogen) constructs using Lipofectamine 2000 reagent and selected with 200 μg/ml hygromycin. The expression of the pFRT-tNhtt-62Q-KikGR was induced by 18 doxycycline treatment of the cells. For the photo-induced kikGR cleavage, cells were exposed to ˜400 nm wavelength for 5 minutes.”
(§3) Cells were washed twice with ice-cold PBS, scraped, and resuspended in lysis buffer (0.5% Triton X-100 in PBS, 0.5 mM phenylmethylsulfonyl fluoride, Complete protease inhibitor mixture (Roche Applied Sciences)). […] Immunoreactive proteins were detected with enhanced chemiluminescence reagents (Amersham Biosciences). […]

[4] = tested on: polyQ inclusions in 150Q Neuro2a cells; experiment: Confocal imaging of tested constructs in 150Q Neuro2a cells; type: cell-based, mouse
Protocol: as §1

[5] = tested on: tNhtt-16Q; experiment: Western blot of tNhtt-16Q levels in inducible Neuro2a cells; type: cell-based, human; conditions: inducible 16Q Neuro2a cells, transfection
Protocol: as §1, with “(Invitrogen).” for “(Invitrogen). Neuro2a tNhtt-62Q-kikGR cell line was generated by transfecting Neuro2a/FRT/TR cells with the pFRT-HD62-KikGR and pOG44 (Invitrogen) constructs using Lipofectamine 2000 reagent and selected with 200 μg/ml hygromycin. The expression of the pFRT-tNhtt-62Q-KikGR was induced by 18 doxycycline treatment of the cells. For the photo-induced kikGR cleavage, cells were exposed to ˜400 nm wavelength for 5 minutes.”
as §3

[6] = tested on: polyQ inclusions in 150Q Neuro2a cells (tNhtt-EGFP-150Q); experiment: ArrayScan quantification of polyQ inclusion formation in inducible 150Q Neuro2a cells; type: cell-based, mouse; conditions: mRFP-tagged constructs, after 24 hours of differentiation and induction
Protocol: Mouse neuroblastoma (Neuro2a) cells were maintained in Dulbecco's modified Eagle's medium (Sigma) supplemented with 10% heat-inactivated fetal bovine serum (Sigma), 100 U/ml penicillin and 100 μg/ml streptomycin (Invitrogen) at 37° C. in an atmosphere containing 5% CO2 and 95% air. Establishment of stable Neuro2a cell lines with the ecdysone-inducible mammalian expression system (Invitrogen), that express tNhtt-EGFP-16Q (16Q Neuro2a cells), tNhtt-EGFP-150Q (150Q Neuro2a cells) and tNhtt-EGFP-150Q-nls (150Q-nls Neuro2a cells) has been described earlier (T. Nagai et al., supra, H. Doi et al., supra, E. A. Zemskov et al., J Neurochem. 87, 2 (2003)). Neuro2a cells were differentiated with 5mM dbcAMP (N^6, 2′-O-dibutyryladenosine-3′,5′-cyclic monophosphate sodium salt) (Nacalai Tesque) and induced to express tNhtt-polyQ with 2 μM ponasterone A (ponA; Invitrogen) for indicated times. Neuro2a/FRT/TR cell line was generated as described in the protocol for Flp-in/T-Rex system (Invitrogen). Neuro2a tNhtt-62Q-kikGR cell line was generated by transfecting Neuro2a/FRT/TR cells with the pFRT-HD62-KikGR and pOG44 (Invitrogen) constructs using Lipofectamine 2000 reagent and selected with 200 μg/ml hygromycin. The expression of the pFRT-tNhtt-62Q-KikGR was induced by 18 doxycycline treatment of the cells. For the photo-induced kikGR cleavage, cells were exposed to ˜400 nm wavelength for 5 minutes. Rat pheochromocytoma (PC12) cells were grown in the same conditions as Neuro2a cells, except for the serum composition of 5% of fetal bovine and 10% of horse serum (Sigma). All transient transfections were performed with Lipofectamine 2000 (Invitrogen) according to the manufacturer's instruction.
as §2
In each well, at least 10000 cells were counted and quantified for the presence of the inclusions. Nuclei stained with Hoechst 33285 provided the autofocus target and their count gave the exact number of the quantified cells. The screening itself consisted of two scans using Hoechst, FITC (for GFP) and TRITC (for RFP) fluorescence. Firstly, number of inclusions in transfected cells was calculated when fluorescent spots at size of at least 5 pixels (magnification 20× for cytoplasmic and 40× for nuclear aggregates) with average GFP intensity more than 1500 in the RFP background were counted. Secondly, nuclei were defined as the objects of interest and the cells with average intensity more than 50 within 3 pixels from the nucleus were selected for the analysis. The percentage of the cells with aggregates was then calculated. When the constructs without mRFP were used for transfection, the procedure was same, except the RFP intensity was not measured. Scanning was performed with triplicate or quadruplicate in each experimental condition. Data was generated from the quantification of more than 250,000 cells in each experimental set-up.

Compound	influence of inhibitor on the effect of HSC70bm on 60Q aggregation [1]	decrease of the polyQ inclusion formation [2] [%]	polyQ aggregation (gel top) [3]	localization relative to polyQ inclusions [4]	levels of tNhtt-16Q [5]	decrease of inclusion formation [6] [%]
Cn1cnc(N)c2ncnc1-2 [3MA, 3-methyladenine]	did not	–	–	–	–	–
mRFP-(QBP1)2 (MSNWKWWPGIFDSNWKWWPGIFD; also: fused to mRFP) [RQ, monomeric red fluorescent protein fused to (QBP1)2, reference compound]	–	21.5	markedly decreased	co-localized with the polyQ inclusions	not affected	38
